Tested on: aphids (Aphis craccivora)
Assay: Efficacy/penetration depth into soils: aphid mortality on chickpeas planted in soil zones from a watered soil column
Type: in vivo
Conditions: top 6 cm soil with 0.5 mg/ai TMX, watering rate 255 l/m^2, chickpeas infected with Aphis craccivora, average of multiple experiments
Experimental: The penetration depth of TMX with and without the improvement system was investigated using the test setup described below.
In this connection, a cylinder (diameter approx. 5.5 cm) was filled to approx. 21 cm with liquid-saturated soil. The soil was divided into three zones of 7 cm each, which were called Zone I (uppermost soil layer), Zone II (middle soil layer), and Zone III (bottommost soil layer).
Subsequently, the cylinder was filled up with 6 cm soil that had been mixed once with 0.5 mg/ai TMX (comparison test), and once with 6 cm soil with 0.5 mg/ai TMX and 2 kg/m^2 improvement system (invention example).
The cylinder was now watered (watering rate 255 l/m^2) until the water had reached the bottom, i.e. complete watering had been achieved.
Subsequently, the soil of Zone I (uppermost zone) to Zone III (bottommost zone) was removed, and chickpeas that had been infected with aphids (Aphis craccivora) were planted in the soil. Now the mortality rate of the aphids was measured, as listed in Table I (average values on the basis of multiple experiments).

With `CN1COCN(Cc2cnc(Cl)s2)/C1=N/[N+](=O)[O-]` [Comparison example, 3-[(2-chloro-1,3-thiazol-5-yl)methyl]-5-methyl-N-nitro-1,3,5-oxadioazinan-4-imine] the “mortality rate of the aphids, Zone I” value (Zone I (uppermost soil layer, 7 cm)) was 93%, the “mortality rate of the aphids, Zone II” value (Zone II (middle soil layer, 7 cm)) was 70% and the “mortality rate of the aphids, Zone III” value (Zone III (bottommost soil layer, 7 cm)) was 5%.
